The values below come from patent publication US8975291B2, “Indoles” (GlaxoSmithKline LLC, priority 2010, dated 2015).

The target of this assay is T1, EZH2 within the PRC2 complex (Homo sapiens, UniProt Q15910).
T1 construct: FLAG; made in house; host or cells: Sf9 cells
The assay can be described thus: EZH2 methyltransferase scintillation proximity assay (SPA) with PRC2 complex. Conditions: 3H-SAM methyl transfer to Histone H3 of HeLa mononucleosomes; read-out: EZH2 pIC50 (converted). Type of assay: biochemical. As for the experimental part:
Compounds contained herein were evaluated for their ability to inhibit the methyltransferase activity of EZH2 within the PRC2 complex. Human PRC2 complex was prepared by co-expressing each of the 5 member proteins (FLAG-EZH2, EED, SUZ12, RbAp48, AEBP2) in Sf9 cells followed by co-purification. Enzyme activity was measured in a scintillation proximity assay (SPA) where a tritiated methyl group is transferred from 3H-SAM to a lysine residue on Histone H3 of a mononucleosome, purified from HeLa cells. Mononucleosomes were captured on SPA beads and the resulting signal is read on a ViewLux plate reader.
Part A. Compound Preparation
• 1. Prepare 10 mM stock of compounds from solid in 100% DMSO. • 2. Set up an 11-point serial dilution (1:3 dilution, top concentration 10 mM) in 100% DMSO for each test compound in a 384 well plate leaving columns 6 and 18 for DMSO controls. • 3. Dispense […] of compound from the dilution plate into reaction plates (Grenier Bio-One, 384-well, Cat #784075). Part B. Reagent Preparation Prepare the following solutions: • 1. 50 mM Tris-HCl, pH 8: Per 1 L of base buffer, combine 1 M Tris-HCl, pH 8 (50 mL) and distilled water (950 mL). • 2. […] 2× Enzyme Solution: Per 10 mL of 2× Enzyme Solution, combine 1× Assay Buffer and PRC2 complex to provide a final enzyme concentration of 10 nM. • 4. SPA Bead Suspension: Per 1 mL of SPA Bead Suspension, combine PS-PEI coated LEADSeeker beads (40 mg) and ddH2O (1 mL) to provide a final concentration of 40 mg/mL. • 5. 2× Substrate Solution: Per 10 mL of 2× Substrate Solution, combine 1× Assay Buffer (9728.55 uL), 800 ug/mL mononucleosomes (125 uL), 1 mM cold SAM (4 uL), and 7.02 uM 3H-SAM (142.45 uL; 0.55 mCi/mL) to provide a final concentration of 5 ug/mL nucleosomes, 0.2 uM cold SAM, and 0.05 uM 3H-SAM. • 6. 2.67× Quench/Bead Mixture: Per 10 mL of 2.67× Quench/Bead Mixture, combine ddH2O (9358 uL), 10 mM cold SAM (267 uL), 40 mg/mL Bead Suspension (375 uL) to provide a final concentration of 100 uM cold SAM and 0.5 mg/mL SPA beads. Part C. Assay Reaction in 384-well Grenier Bio-One Plates Compound Addition • 1. Dispense […] of 100× Compound to test wells (as noted above). • 2. Dispense […] of 100% DMSO to columns 6 & 18 for high and low controls, respectively. Assay • 1. […] Dispense 5 uL/well of 2× Enzyme Solution to columns 1-17, 19-24. • 3. Spin assay plates for ˜1 minute at 500 rpm. • 4. Stack the assay plates, covering the top plate. • 5. Incubate the compound/DMSO with the enzyme for 30 minutes at room temperature. • 6. Dispense 5 uL/well of 2× Substrate Solution to columns 1-24. • 7. Spin assay plates for ˜1 minute at 500 rpm. • 8. Stack the assay plates, covering the top plate. • 9. Incubate the assay plates at room temperature for 1 hour. Quench/Bead Addition • 1. Dispense 5 uL/well of the 3× Quench/Bead Mixture to columns 1-24. • 2. Seal the top of each assay plate with adhesive TopSeal. • 3. Spin assay plates for ˜1 minute at 500 rpm. • 4. Equilibrate the plates for >20 min. Read Plates • 1. Read the assay plates on the Viewlux Plate Reader utilizing the 613 nm emission filter with a 300 s read time. Reagent addition can be done manually or with automated liquid handler. • The final DMSO concentration in this assay is 1%. • The positive control is in column 6; negative control is in column 18. • Final starting concentration of compounds is 100 μM. Part D. Data Analysis
Percent inhibition was calculated relative to the DMSO control for each compound concentration and the resulting values were fit using standard IC50 fitting parameters within the ABASE data fitting software package.

T1 sequence (Q15910 whole entry): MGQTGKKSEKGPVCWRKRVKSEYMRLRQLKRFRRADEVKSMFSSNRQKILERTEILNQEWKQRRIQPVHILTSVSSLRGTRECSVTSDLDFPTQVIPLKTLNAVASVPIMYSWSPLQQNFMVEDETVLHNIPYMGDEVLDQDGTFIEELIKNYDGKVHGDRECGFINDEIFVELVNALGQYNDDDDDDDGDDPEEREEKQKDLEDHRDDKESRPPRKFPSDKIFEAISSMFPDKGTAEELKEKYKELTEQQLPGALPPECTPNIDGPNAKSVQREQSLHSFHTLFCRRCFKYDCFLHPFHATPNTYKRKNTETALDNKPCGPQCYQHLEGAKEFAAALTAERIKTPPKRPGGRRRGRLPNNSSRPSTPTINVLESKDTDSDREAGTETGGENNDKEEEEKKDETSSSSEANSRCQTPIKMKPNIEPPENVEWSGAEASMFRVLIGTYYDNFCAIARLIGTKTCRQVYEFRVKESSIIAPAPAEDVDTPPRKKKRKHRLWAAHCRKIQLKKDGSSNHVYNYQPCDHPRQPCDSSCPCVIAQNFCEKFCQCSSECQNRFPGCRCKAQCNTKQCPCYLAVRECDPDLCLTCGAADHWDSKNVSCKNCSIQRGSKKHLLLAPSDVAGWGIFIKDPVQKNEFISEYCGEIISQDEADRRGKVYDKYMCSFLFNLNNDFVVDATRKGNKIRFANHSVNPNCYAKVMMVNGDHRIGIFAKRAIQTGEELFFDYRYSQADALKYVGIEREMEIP
T1 sequence (O75530 whole entry partner): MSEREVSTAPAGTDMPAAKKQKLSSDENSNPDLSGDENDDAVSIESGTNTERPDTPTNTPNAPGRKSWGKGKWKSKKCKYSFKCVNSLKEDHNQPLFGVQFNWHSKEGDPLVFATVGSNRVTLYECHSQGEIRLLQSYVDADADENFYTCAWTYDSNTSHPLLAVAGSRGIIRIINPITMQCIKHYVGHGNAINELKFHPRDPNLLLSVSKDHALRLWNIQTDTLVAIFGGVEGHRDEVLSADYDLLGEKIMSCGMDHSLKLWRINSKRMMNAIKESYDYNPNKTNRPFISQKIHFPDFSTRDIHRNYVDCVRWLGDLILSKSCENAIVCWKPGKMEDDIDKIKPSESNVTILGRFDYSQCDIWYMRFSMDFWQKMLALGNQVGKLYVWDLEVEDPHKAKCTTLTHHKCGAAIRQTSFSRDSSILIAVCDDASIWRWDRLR
T1 sequence (Q15022 whole entry partner): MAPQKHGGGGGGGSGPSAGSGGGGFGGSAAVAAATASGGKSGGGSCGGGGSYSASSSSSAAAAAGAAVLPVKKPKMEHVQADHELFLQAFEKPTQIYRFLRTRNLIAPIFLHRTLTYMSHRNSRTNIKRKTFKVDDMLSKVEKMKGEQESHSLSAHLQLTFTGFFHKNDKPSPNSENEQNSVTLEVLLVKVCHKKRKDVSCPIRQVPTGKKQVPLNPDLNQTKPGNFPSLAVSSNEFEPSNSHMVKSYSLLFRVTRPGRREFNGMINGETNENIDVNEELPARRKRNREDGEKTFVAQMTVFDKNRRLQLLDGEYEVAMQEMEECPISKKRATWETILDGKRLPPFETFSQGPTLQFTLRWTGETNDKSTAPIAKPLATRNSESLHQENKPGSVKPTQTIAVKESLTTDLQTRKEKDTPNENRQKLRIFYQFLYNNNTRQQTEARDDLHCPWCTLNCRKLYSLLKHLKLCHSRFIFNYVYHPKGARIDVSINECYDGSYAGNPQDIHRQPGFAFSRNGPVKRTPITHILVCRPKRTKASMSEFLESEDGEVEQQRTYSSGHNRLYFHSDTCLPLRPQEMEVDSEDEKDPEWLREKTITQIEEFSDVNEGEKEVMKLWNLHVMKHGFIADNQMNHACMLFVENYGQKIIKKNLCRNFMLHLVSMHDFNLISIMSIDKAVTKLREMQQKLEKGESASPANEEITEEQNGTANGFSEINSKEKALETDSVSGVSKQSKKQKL
T1 sequence (Q09028 whole entry partner): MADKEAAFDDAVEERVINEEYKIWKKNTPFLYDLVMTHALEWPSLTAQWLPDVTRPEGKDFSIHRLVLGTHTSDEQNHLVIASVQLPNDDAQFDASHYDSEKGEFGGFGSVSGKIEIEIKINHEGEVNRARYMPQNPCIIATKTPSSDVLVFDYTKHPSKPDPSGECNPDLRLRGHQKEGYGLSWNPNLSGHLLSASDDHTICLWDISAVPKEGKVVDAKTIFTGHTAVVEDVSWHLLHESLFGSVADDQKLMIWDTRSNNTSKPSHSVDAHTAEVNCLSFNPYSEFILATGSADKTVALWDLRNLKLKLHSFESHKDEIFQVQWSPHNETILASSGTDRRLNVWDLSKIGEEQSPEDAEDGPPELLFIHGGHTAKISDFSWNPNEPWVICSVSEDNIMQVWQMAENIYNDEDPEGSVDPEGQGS
T1 sequence (Q6ZN18 whole entry partner): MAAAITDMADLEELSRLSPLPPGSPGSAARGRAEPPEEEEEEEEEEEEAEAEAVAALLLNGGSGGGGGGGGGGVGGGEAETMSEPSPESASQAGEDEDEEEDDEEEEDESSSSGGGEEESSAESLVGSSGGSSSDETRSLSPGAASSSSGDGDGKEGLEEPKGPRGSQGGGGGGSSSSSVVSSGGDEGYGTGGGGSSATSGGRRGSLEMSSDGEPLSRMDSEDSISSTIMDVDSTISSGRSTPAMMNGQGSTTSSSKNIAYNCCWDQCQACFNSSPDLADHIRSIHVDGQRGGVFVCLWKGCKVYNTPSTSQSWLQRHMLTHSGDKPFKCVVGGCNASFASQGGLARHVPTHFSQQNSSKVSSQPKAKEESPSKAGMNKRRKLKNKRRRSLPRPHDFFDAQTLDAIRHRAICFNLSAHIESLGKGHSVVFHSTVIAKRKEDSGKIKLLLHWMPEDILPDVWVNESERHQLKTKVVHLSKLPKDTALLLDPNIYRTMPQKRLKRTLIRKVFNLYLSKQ

`Cc1cc(C)c(CNC(=O)c2cc(Nc3ccc(N4CCN(C)CC4)nc3)cc3c2c(C)cn3C(C)C)c(=O)[nH]1` [Example 361, N-[(4,6-dimethyl-2-oxo-1,2-dihydro-3-pyridinyl)methyl]-3-methyl-1-(1-methylethyl)-6-{[6-(4-methyl-1-piperazinyl)-3-pyridinyl]amino)-1H-indole-4-carboxamide]: the IC50 is 55 nM. To `Cc1cc(C)c(CNC(=O)c2cc(NC(=O)N3CCN(C)CC3)cc3c2c(C)cn3C(C)C)c(=O)[nH]1` [Example 362, N-[(4,6-dimethyl-2-oxo-1,2-dihydro-3-pyridinyl)methyl]-3-methyl-1-(1-methylethyl)-6-{[(4-methyl-1-piperazinyl)carbonyl]amino}-1H-indole-4-carboxamide] belongs 129 nM.
